Earlier results as cited in US8197801B2, “Use of compounds for the preservation of the human or animal body and compositions comprising same” (Arkema France, priority 2006, dated 2012).

Details: general statement

Structure (SMILES)	Toxicity relative to methanol and formaldehyde
CCCCOCOCCCC [butylal, C4H9—(OCH2)—OC4H9]	much less toxic than methanol and formaldehyde
CCOCOCC [ethylal, C2H5—(OCH2)—OC2H5]	much less toxic than methanol and formaldehyde
COCOC [methylal, CH3—(OCH2)—OCH3]	much less toxic than methanol and formaldehyde
